Values of other authors in EP1464334A1 (priority 2003, dated 2004).
Structures can show the parent of a compound that is named as a salt. Where two headings read alike, the source gives them in different places.

Key:
[1] = rabbit, in vivo, po
[2] = mouse, in vivo, po

## CCN(CC)CCCC(C)Nc1c2ccc(Cl)cc2nc2ccc(OC)cc12 (centres unmarked) [Chinacrinhydrochlorid]
[1]
  LD50-Dosis: 433 mg/kg
[2]
  LD50-Dosis: 557 mg/kg
